Laboratory results published in PubChem BioAssay AID1996.
Converted amounts (≈) assume the structure as drawn.

Conditions: buffer; pH 7.4; 200.0 µM
`O=C1CC(Sc2ccc(Cl)cc2)C(=O)N1c1ccc2c(c1)OCCO2` (centres undefined) gave a solubility kinetic of 13 µg/mL (≈ 34.6 µM). Work on `O=C(Nc1ccc(S(=O)(=O)N2CCCCC2)cc1)c1ccco1` yielded a solubility kinetic of 46.2 µg/mL (≈ 138 µM). For `COc1ccc(C)cc1Nc1ccc(C(=O)O)cc1[N+](=O)[O-]`, the solubility kinetic was 44.3 µg/mL (≈ 147 µM). With `Cc1ccc(C)c(NC(=O)C(c2ccccc2)N2CCN(CC(=O)N3CCOCC3)CC2)c1` (centres undefined) the solubility kinetic was greater than 67.6 µg/mL. Compound `CN1CCN(C(=O)/C(=C/c2ccc(F)cc2)NC(=O)c2ccccc2)CC1` has a solubility kinetic of 54.5 µg/mL (≈ 148 µM). In the case of `Cc1ccc(NC(=O)CCC(=O)NNC(=O)C(C)(C)C)c(C)c1`, the solubility kinetic was greater than 47.9 µg/mL. In the case of `NC(=O)c1ccccc1NC(=O)Nc1ccc(F)c(Cl)c1`, the solubility kinetic was 2.1 µg/mL (≈ 6.82 µM). `CCN1CCN(C(=O)Cc2ccc(C)cc2)CC1` gave a solubility kinetic greater than 37 µg/mL. With `O=C(COC(=O)CNC(=O)c1ccccc1)Nc1ccc(Cl)cn1` the solubility kinetic was 15.8 µg/mL (≈ 45.4 µM). `CCCCS(=O)(=O)N1CCC(C(=O)Oc2ccc(Cl)cc2)CC1` showed a solubility kinetic of 1.7 µg/mL (≈ 4.72 µM). In the case of `O=C1CN(C(=O)COc2ccc(F)cc2Cl)c2ccccc2N1`, the solubility kinetic was greater than 50.2 µg/mL. With `C=CCN(CC=C)C(=S)Nc1cc(Cl)ccc1OC` the solubility kinetic was greater than 44.5 µg/mL. `O=S(=O)(c1ccc(Cl)cc1)n1cnc2ccccc21` showed a solubility kinetic greater than 43.9 µg/mL. Compound `O=C1CCCc2c1nc(-c1ccc(F)cc1)n2O` has a solubility kinetic greater than 36.9 µg/mL. In the case of `O=C(CSc1nncn1-c1ccccc1)NC1CCCC1`, the solubility kinetic was greater than 45.4 µg/mL. `Cc1cccc(C)c1NC(=O)CSC(=S)N1CCCC1` showed a solubility kinetic of 9.6 µg/mL (≈ 31.1 µM). Work on `CCCC(=O)Nc1ccc(C2C(=O)c3ccccc3C2=O)cc1` yielded a solubility kinetic greater than 46.1 µg/mL. `Cc1ccc(C)c(SCC(=O)N(C)C2CCS(=O)(=O)C2)c1` (centres undefined) showed a solubility kinetic greater than 49.1 µg/mL. For `COc1ccc(NC(=O)CNC(=O)Cc2cccc3ccccc23)cc1`, the solubility kinetic was 4.3 µg/mL (≈ 12.3 µM). Work on `COc1ccc(S(=O)(=O)N2CCCC2c2cccs2)cc1` (centres undefined) yielded a solubility kinetic of 27.4 µg/mL (≈ 84.7 µM). Compound `O=C1CN(C(=O)CN2C(=O)NC(c3ccccc3)(c3ccccc3)C2=O)c2ccccc2N1` has a solubility kinetic of 6.3 µg/mL (≈ 14.3 µM). `CCOc1ccc(C(=O)CCC(=O)NC(C)C(=O)OC)cc1` (centres undefined) showed a solubility kinetic greater than 46.1 µg/mL. `CC1CN(C(=O)c2ccc(Oc3ccccc3)cc2)CC(C)O1` (centres undefined) showed a solubility kinetic greater than 46.7 µg/mL. Compound `Cc1ccc(CNc2ncnc3cc(Cl)ccc23)cc1` has a solubility kinetic of 5 µg/mL (≈ 17.6 µM). With `CCN(CC)C(=O)c1ccc(S(=O)(=O)c2ccccc2)cc1` the solubility kinetic was 33.6 µg/mL (≈ 106 µM). Work on `CCn1c(SCc2ccccc2)nc2c1c(=O)[nH]c(=O)n2C` yielded a solubility kinetic of 39.3 µg/mL (≈ 124 µM). With `O=[N+]([O-])c1cnc(Nc2ccc(Cl)cn2)c([N+](=O)[O-])c1` the solubility kinetic was 1.8 µg/mL (≈ 6.09 µM). With `CN(CC(=O)Nc1ccc(F)c(F)c1F)C(=O)C1=COCCO1` the solubility kinetic was greater than 49.5 µg/mL. In the case of `Cc1ccc2nc(Nc3ncc4c(n3)CC(C)(C)CC4=O)nc(C)c2c1`, the solubility kinetic was 10.5 µg/mL (≈ 30.2 µM). `Cc1nccn1Cc1ccc(Cl)nc1` showed a solubility kinetic greater than 31.1 µg/mL. `Cn1c(S(=O)(=O)O)nc2ccccc21` gave a solubility kinetic of 31.5 µg/mL (≈ 148 µM). `COc1ccccc1NC(=O)COC(=O)/C=C/c1cccs1` gave a solubility kinetic of 4.4 µg/mL (≈ 13.9 µM). `COc1ccc(CN(C)CC(=O)Nc2cccc(S(=O)(=O)N3CCCC3)c2)cc1F` gave a solubility kinetic of 44 µg/mL (≈ 101 µM). For `COc1ccc(CC(=O)OCC(=O)c2ccc[nH]2)cc1`, the solubility kinetic was greater than 41 µg/mL. Compound `COc1ccc(Cl)cc1NC(=O)NCc1ccc2c(c1)OCO2` has a solubility kinetic of less than 0.4 µg/mL. Work on `Fc1cccc(Cl)c1CNc1ccc(N2CCCC2)cc1` yielded a solubility kinetic of 0.7 µg/mL (≈ 2.3 µM). Compound `CC(=O)Nc1ccc(S(=O)(=O)N2CCN(c3ccc([N+](=O)[O-])cc3)CC2)cc1` has a solubility kinetic of 0.4 µg/mL (≈ 0.989 µM). In the case of `COC(=O)c1ccc(CN=C(NS(=O)(=O)c2ccccc2)c2ccccc2)cc1`, the solubility kinetic was greater than 61.3 µg/mL. In the case of `Cc1cccc(C)c1OCCCn1ccnc1`, the solubility kinetic was 20.1 µg/mL (≈ 87.3 µM). Compound `Cc1ccc2nc(C)cc(C(=O)NC3CCCCCC3)c2c1` has a solubility kinetic of 3.6 µg/mL (≈ 12.1 µM). In the case of `CCOc1ccc(-n2c(-c3cccs3)nc3ccccc3c2=O)cc1`, the solubility kinetic was 0.5 µg/mL (≈ 1.44 µM). Compound `CCN(CC(=O)NC1CCS(=O)(=O)C1)S(=O)(=O)c1ccc(Br)cc1` (centres undefined) has a solubility kinetic greater than 65.9 µg/mL. With `CCN1C(=O)C(C(=O)c2ccccc2)SC1=S` (centres undefined) the solubility kinetic was 38.4 µg/mL (≈ 145 µM). `Cc1ccc(C)c(NC(=O)CSc2c(C)n[nH]c2C)c1` gave a solubility kinetic greater than 43.4 µg/mL. Compound `Nc1nc(N)n(-c2ccccc2)c(=Nc2ccccc2)n1` has a solubility kinetic greater than 41.7 µg/mL. In the case of `O=C(Nc1cc(Cl)cc(Cl)c1)N1CCCC1`, the solubility kinetic was 34.6 µg/mL (≈ 134 µM). `Cc1ccc2c(c1)sc1ncc(NC(=O)c3ccc(F)cc3)c(=O)n12` gave a solubility kinetic of less than 0.3 µg/mL. Work on `Cn1c(/C(C#N)=C(\O)c2cc(Cl)sc2Cl)nc2ccccc21` yielded a solubility kinetic of 0.9 µg/mL (≈ 2.57 µM). For `O=C(NCC(c1ccco1)N1CCCC1)c1ccc(-n2cccn2)cc1` (centres undefined), the solubility kinetic was greater than 52.6 µg/mL. Compound `O=C(NCCNc1ccc([N+](=O)[O-])cc1)c1cccs1` has a solubility kinetic of 6.7 µg/mL (≈ 23 µM). In the case of `CS(=O)(=O)N(CC(=O)Nc1ccc(Br)cc1F)C1CCCCC1`, the solubility kinetic was greater than 61.1 µg/mL. With `O=C(Nc1ccc(F)cc1)NC1CCCc2ccccc21` (centres undefined) the solubility kinetic was 0.7 µg/mL (≈ 2.46 µM). With `Cc1ccc(CNc2nc3ccccc3n2C)cc1` the solubility kinetic was greater than 37.7 µg/mL. Compound `CC(C)S(=O)(=O)c1csc(NC(=O)Nc2cc(Cl)ccc2Cl)c1Cl` has a solubility kinetic of less than 0.5 µg/mL. For `COc1cc(C2NC(=O)NC(C)=C2C(C)=O)cc(OC)c1OC` (centres undefined), the solubility kinetic was 38.7 µg/mL (≈ 121 µM). Compound `CCOc1ccc(NC(=S)NCc2cccnc2)cc1` has a solubility kinetic greater than 43.1 µg/mL. Work on `Cc1nn(C)c(C)c1NC(=O)COc1ccccc1C#N` yielded a solubility kinetic greater than 42.6 µg/mL. `COc1ccc(CC(=O)N2CCC(c3ccccc3)C2)cc1` (centres undefined) gave a solubility kinetic of 40.8 µg/mL (≈ 138 µM). In the case of `O=C1CNC(=S)N1Cc1ccc(F)cc1`, the solubility kinetic was greater than 33.6 µg/mL.
